Measurements: patent US10238670B2, “9-aminomethyl minocycline compounds and methods of use thereof in urinary tract infection (UTI) treatment” (Paratek Pharmaceuticals, Inc., priority 2016, dated 2019)
≈ marks a conversion by molar mass, not a printed value.

Experiments:
Assay in all cases: In vitro MIC, 2010 surveillance isolates
K. pneumoniae ESBL− = assay type: cell-based, Klebsiella pneumoniae
Enterobacter spp = assay type: cell-based
K. pneumoniae ESBL+ = assay type: cell-based, Klebsiella pneumoniae
E. cloacae CeftazR = assay type: cell-based
K. oxytoca = assay type: cell-based; design: MIC90: unit: µg/mL
A. baumanii = assay type: cell-based
Acinetobacter spp = assay type: cell-based
E. coli ESBL− = assay type: cell-based, Escherichia coli
E. coli ESBL+ = assay type: cell-based, Escherichia coli
E. cloacae CeftazS = assay type: cell-based

NCC[C@H](O)C(=O)N[C@@H]1C[C@H](N)[C@@H](O[C@H]2O[C@H](CN)[C@@H](O)[C@H](O)[C@H]2O)[C@H](O)[C@H]1O[C@H]1O[C@H](CO)[C@@H](O)[C@H](N)[C@H]1O [Amikacin]
% R (resistance) (K. pneumoniae ESBL−; Asia/Pac, Eucast breakpoints): 0.5%
MIC90 (K. pneumoniae ESBL−; Asia/Pac, N=189): 2 µg/mL (≈ 3.42 µM)
% R (resistance) (K. pneumoniae ESBL−; Europe, Eucast breakpoints): 0.3%
MIC90 (K. pneumoniae ESBL−; Europe, N=361): 2 µg/mL (≈ 3.42 µM)
% R (resistance) (K. pneumoniae ESBL−; L. Amer, CLSI breakpoints): 0%
MIC90 (K. pneumoniae ESBL−; L. Amer, N=160): 2 µg/mL (≈ 3.42 µM)
% R (resistance) (K. pneumoniae ESBL−; N America, CLSI breakpoints): 0%
MIC90 (K. pneumoniae ESBL−; N America, N=671): 2 µg/mL (≈ 3.42 µM)
% R (resistance) (Enterobacter spp; Asia/Pac, Eucast breakpoints): 3.8%
MIC90 (Enterobacter spp; Asia/Pac, N=52): 2 µg/mL (≈ 3.42 µM)
% R (resistance) (Enterobacter spp; Europe, Eucast breakpoints): 0%
MIC90 (Enterobacter spp; Europe, N=82): 4 µg/mL (≈ 6.83 µM)
% R (resistance) (Enterobacter spp; L. Amer, CLSI breakpoints): 0%
MIC90 (Enterobacter spp; L. Amer, N=42): 4 µg/mL (≈ 6.83 µM)
% R (resistance) (Enterobacter spp; N America, CLSI breakpoints): 1%
MIC90 (Enterobacter spp; N America, N=101): 2 µg/mL (≈ 3.42 µM)
% R (resistance) (K. pneumoniae ESBL+; Asia/Pac, Eucast breakpoints): 23.4%
MIC90 (K. pneumoniae ESBL+; Asia/Pac, N=124): > 32 µg/mL
% R (resistance) (K. pneumoniae ESBL+; Europe, Eucast breakpoints): 15.9%
MIC90 (K. pneumoniae ESBL+; Europe, N=151): 32 µg/mL (≈ 54.6 µM)
% R (resistance) (K. pneumoniae ESBL+; L. Amer, CLSI breakpoints): 14.8%
MIC90 (K. pneumoniae ESBL+; L. Amer, N=209): > 32 µg/mL
% R (resistance) (K. pneumoniae ESBL+; N America, CLSI breakpoints): 2.8%
MIC90 (K. pneumoniae ESBL+; N America, N=108): 32 µg/mL (≈ 54.6 µM)
% R (resistance) (E. cloacae CeftazR; Asia/Pac, Eucast breakpoints): 9.5%
MIC90 (E. cloacae CeftazR; Asia/Pac, N=63): 16 µg/mL (≈ 27.3 µM)
% R (resistance) (E. cloacae CeftazR; Europe, Eucast breakpoints): 1.4%
MIC90 (E. cloacae CeftazR; Europe, N=72): 8 µg/mL (≈ 13.7 µM)
% R (resistance) (E. cloacae CeftazR; L. Amer, CLSI breakpoints): 7.1%
MIC90 (E. cloacae CeftazR; L. Amer, N=42): 16 µg/mL (≈ 27.3 µM)
% R (resistance) (E. cloacae CeftazR; N America, CLSI breakpoints): 0%
MIC90 (E. cloacae CeftazR; N America, N=77): 4 µg/mL (≈ 6.83 µM)
% R (resistance) (K. oxytoca; Asia/Pac, Eucast breakpoints): 0%
MIC90 (K. oxytoca; Asia/Pac, N=17): 2 µg/mL (≈ 3.42 µM)
% R (resistance) (K. oxytoca; Europe, Eucast breakpoints): 0%
MIC90 (K. oxytoca; Europe, N=158): 2 µg/mL (≈ 3.42 µM)
% R (resistance) (K. oxytoca; L. Amer, CLSI breakpoints): 8%
MIC90 (K. oxytoca; L. Amer, N=25): 32 µg/mL (≈ 54.6 µM)
% R (resistance) (K. oxytoca; N America, CLSI breakpoints): 0%
MIC90 (K. oxytoca; N America, N=177): 2 µg/mL (≈ 3.42 µM)
% R (resistance) (A. baumanii; Asia/Pac, Eucast breakpoints): 74.9%
MIC90 (A. baumanii; Asia/Pac, N=275): > 32 µg/mL
% R (resistance) (A. baumanii; Europe, Eucast breakpoints): 58.6%
MIC90 (A. baumanii; Europe, N=145): > 32 µg/mL
% R (resistance) (A. baumanii; L. Amer, CLSI breakpoints): 57.5%
MIC90 (A. baumanii; L. Amer, N=275): > 32 µg/mL
% R (resistance) (A. baumanii; N America, CLSI breakpoints): 42.9%
MIC90 (A. baumanii; N America, N=154): > 32 µg/mL
% R (resistance) (Acinetobacter spp; Asia/Pac, Eucast breakpoints): 22.2%
% R (resistance) (Acinetobacter spp; Europe, Eucast breakpoints): 39.5%
MIC90 (Acinetobacter spp; Europe, N=43): > 32 µg/mL
% R (resistance) (Acinetobacter spp; L. Amer, CLSI breakpoints): 22.2%
% R (resistance) (Acinetobacter spp; N America, CLSI breakpoints): 9.5%
MIC90 (Acinetobacter spp; N America, N=42): 8 µg/mL (≈ 13.7 µM)
% R (resistance) (E. coli ESBL−; Asia/Pac, Eucast breakpoints): 0.4%
MIC90 (E. coli ESBL−; Asia/Pac, N=282): 4 µg/mL (≈ 6.83 µM)
% R (resistance) (E. coli ESBL−; Europe, Eucast breakpoints): 0.3%
MIC90 (E. coli ESBL−; Europe, N=1533): 4 µg/mL (≈ 6.83 µM)
% R (resistance) (E. coli ESBL−; L. Amer, CLSI breakpoints): 0%
MIC90 (E. coli ESBL−; L. Amer, N=389): 4 µg/mL (≈ 6.83 µM)
% R (resistance) (E. coli ESBL−; N America, CLSI breakpoints): 0%
MIC90 (E. coli ESBL−; N America, N=1172): 4 µg/mL (≈ 6.83 µM)
% R (resistance) (E. coli ESBL+; Asia/Pac, Eucast breakpoints): 8.2%
MIC90 (E. coli ESBL+; Asia/Pac, N=219): 8 µg/mL (≈ 13.7 µM)
% R (resistance) (E. coli ESBL+; Europe, Eucast breakpoints): 2.2%
MIC90 (E. coli ESBL+; Europe, N=274): 8 µg/mL (≈ 13.7 µM)
% R (resistance) (E. coli ESBL+; L. Amer, CLSI breakpoints): 1.2%
MIC90 (E. coli ESBL+; L. Amer, N=168): 8 µg/mL (≈ 13.7 µM)
% R (resistance) (E. coli ESBL+; N America, CLSI breakpoints): 0.7%
MIC90 (E. coli ESBL+; N America, N=134): 8 µg/mL (≈ 13.7 µM)
% R (resistance) (E. cloacae CeftazS; Asia/Pac, Eucast breakpoints): 1%
MIC90 (E. cloacae CeftazS; Asia/Pac, N=100): 2 µg/mL (≈ 3.42 µM)
% R (resistance) (E. cloacae CeftazS; Europe, Eucast breakpoints): 1.1%
MIC90 (E. cloacae CeftazS; Europe, N=183): 2 µg/mL (≈ 3.42 µM)
% R (resistance) (E. cloacae CeftazS; L. Amer, CLSI breakpoints): 0%
MIC90 (E. cloacae CeftazS; L. Amer, N=57): 16 µg/mL (≈ 27.3 µM)
% R (resistance) (E. cloacae CeftazS; N America, CLSI breakpoints): 0%
MIC90 (E. cloacae CeftazS; N America, N=210): 2 µg/mL (≈ 3.42 µM)

CO/N=C(\C(=O)N[C@@H]1C(=O)N2C(C(=O)[O-])=C(C[N+]3(C)CCCC3)CS[C@H]12)c1csc(N)n1 [Cefepime]
% R (resistance) (K. pneumoniae ESBL−; Asia/Pac, Eucast breakpoints): 0%
MIC90 (K. pneumoniae ESBL−; Asia/Pac, N=189): ≤ 0.12 µg/mL
% R (resistance) (K. pneumoniae ESBL−; Europe, Eucast breakpoints): 0%
MIC90 (K. pneumoniae ESBL−; Europe, N=361): ≤ 0.12 µg/mL
% R (resistance) (K. pneumoniae ESBL−; L. Amer, CLSI breakpoints): 0%
MIC90 (K. pneumoniae ESBL−; L. Amer, N=160): ≤ 0.12 µg/mL
% R (resistance) (K. pneumoniae ESBL−; N America, CLSI breakpoints): 0%
MIC90 (K. pneumoniae ESBL−; N America, N=671): ≤ 0.12 µg/mL
% R (resistance) (Enterobacter spp; Asia/Pac, Eucast breakpoints): 5.8%
MIC90 (Enterobacter spp; Asia/Pac, N=52): 1 µg/mL (≈ 2.08 µM)
% R (resistance) (Enterobacter spp; Europe, Eucast breakpoints): 2.4%
MIC90 (Enterobacter spp; Europe, N=82): 1 µg/mL (≈ 2.08 µM)
% R (resistance) (Enterobacter spp; L. Amer, CLSI breakpoints): 14.3%
MIC90 (Enterobacter spp; L. Amer, N=42): > 16 µg/mL
% R (resistance) (Enterobacter spp; N America, CLSI breakpoints): 1%
MIC90 (Enterobacter spp; N America, N=101): 0.5 µg/mL (≈ 1.04 µM)
% R (resistance) (K. pneumoniae ESBL+; Asia/Pac, Eucast breakpoints): 65.3%
MIC90 (K. pneumoniae ESBL+; Asia/Pac, N=124): > 16 µg/mL
% R (resistance) (K. pneumoniae ESBL+; Europe, Eucast breakpoints): 76.8%
MIC90 (K. pneumoniae ESBL+; Europe, N=151): > 16 µg/mL
% R (resistance) (K. pneumoniae ESBL+; L. Amer, CLSI breakpoints): 69.4%
MIC90 (K. pneumoniae ESBL+; L. Amer, N=209): > 16 µg/mL
% R (resistance) (K. pneumoniae ESBL+; N America, CLSI breakpoints): 43.5%
MIC90 (K. pneumoniae ESBL+; N America, N=108): > 16 µg/mL
% R (resistance) (E. cloacae CeftazR; Asia/Pac, Eucast breakpoints): 38.1%
MIC90 (E. cloacae CeftazR; Asia/Pac, N=63): > 16 µg/mL
% R (resistance) (E. cloacae CeftazR; Europe, Eucast breakpoints): 25%
MIC90 (E. cloacae CeftazR; Europe, N=72): > 16 µg/mL
% R (resistance) (E. cloacae CeftazR; L. Amer, CLSI breakpoints): 26.2%
MIC90 (E. cloacae CeftazR; L. Amer, N=42): > 16 µg/mL
% R (resistance) (E. cloacae CeftazR; N America, CLSI breakpoints): 6.5%
MIC90 (E. cloacae CeftazR; N America, N=77): 16 µg/mL (≈ 33.3 µM)
% R (resistance) (K. oxytoca; Asia/Pac, Eucast breakpoints): 23.5%
MIC90 (K. oxytoca; Asia/Pac, N=17): > 16 µg/mL
% R (resistance) (K. oxytoca; Europe, Eucast breakpoints): 4.4%
MIC90 (K. oxytoca; Europe, N=158): 1 µg/mL (≈ 2.08 µM)
MIC90 (K. oxytoca; L. Amer, N=25): >16 (16)
% R (resistance) (K. oxytoca; N America, CLSI breakpoints): 0%
MIC90 (K. oxytoca; N America, N=177): 0.25 µg/mL (≈ 0.52 µM)
MIC90 (A. baumanii; Asia/Pac, N=275): > 16 µg/mL
MIC90 (A. baumanii; Europe, N=145): > 16 µg/mL
% R (resistance) (A. baumanii; L. Amer, CLSI breakpoints): 78.9%
MIC90 (A. baumanii; L. Amer, N=275): > 16 µg/mL
% R (resistance) (A. baumanii; N America, CLSI breakpoints): 61.7%
MIC90 (A. baumanii; N America, N=154): > 16 µg/mL
MIC90 (Acinetobacter spp; Europe, N=43): > 16 µg/mL
% R (resistance) (Acinetobacter spp; L. Amer, CLSI breakpoints): 55.6%
% R (resistance) (Acinetobacter spp; N America, CLSI breakpoints): 16.7%
MIC90 (Acinetobacter spp; N America, N=42): > 16 µg/mL
% R (resistance) (E. coli ESBL−; Asia/Pac, Eucast breakpoints): 0%
MIC90 (E. coli ESBL−; Asia/Pac, N=282): 1 µg/mL (≈ 2.08 µM)
% R (resistance) (E. coli ESBL−; Europe, Eucast breakpoints): 0.1%
MIC90 (E. coli ESBL−; Europe, N=1533): ≤ 0.12 µg/mL
% R (resistance) (E. coli ESBL−; L. Amer, CLSI breakpoints): 0%
MIC90 (E. coli ESBL−; L. Amer, N=389): ≤ 0.12 µg/mL
% R (resistance) (E. coli ESBL−; N America, CLSI breakpoints): 0%
MIC90 (E. coli ESBL−; N America, N=1172): ≤ 0.12 µg/mL
% R (resistance) (E. coli ESBL+; Asia/Pac, Eucast breakpoints): 73.5%
MIC90 (E. coli ESBL+; Asia/Pac, N=219): > 16 µg/mL
% R (resistance) (E. coli ESBL+; Europe, Eucast breakpoints): 69%
MIC90 (E. coli ESBL+; Europe, N=274): > 16 µg/mL
% R (resistance) (E. coli ESBL+; L. Amer, CLSI breakpoints): 47%
MIC90 (E. coli ESBL+; L. Amer, N=168): > 16 µg/mL
% R (resistance) (E. coli ESBL+; N America, CLSI breakpoints): 38.8%
MIC90 (E. coli ESBL+; N America, N=134): > 16 µg/mL
% R (resistance) (E. cloacae CeftazS; Asia/Pac, Eucast breakpoints): 2%
MIC90 (E. cloacae CeftazS; Asia/Pac, N=100): ≤ 0.12 µg/mL
% R (resistance) (E. cloacae CeftazS; Europe, Eucast breakpoints): 1.1%
MIC90 (E. cloacae CeftazS; Europe, N=183): 0.25 µg/mL (≈ 0.52 µM)
% R (resistance) (E. cloacae CeftazS; L. Amer, CLSI breakpoints): 10.5%
MIC90 (E. cloacae CeftazS; L. Amer, N=57): > 16 µg/mL
% R (resistance) (E. cloacae CeftazS; N America, CLSI breakpoints): 0%
MIC90 (E. cloacae CeftazS; N America, N=210): ≤ 0.12 µg/mL
